The record followed here is US20240116985A1, “STAPLED PEPTIDES AND METHODS THEREOF” (priority 2020, published 2024).

In assay [1] the target is T1, full-length beta-Catenin (Uniprot ID P35222) (Homo sapiens, UniProt P35222).
T1 construct: 10 nM full-length beta-Catenin (Uniprot ID P35222)
T1 sequence (P35222 1-781): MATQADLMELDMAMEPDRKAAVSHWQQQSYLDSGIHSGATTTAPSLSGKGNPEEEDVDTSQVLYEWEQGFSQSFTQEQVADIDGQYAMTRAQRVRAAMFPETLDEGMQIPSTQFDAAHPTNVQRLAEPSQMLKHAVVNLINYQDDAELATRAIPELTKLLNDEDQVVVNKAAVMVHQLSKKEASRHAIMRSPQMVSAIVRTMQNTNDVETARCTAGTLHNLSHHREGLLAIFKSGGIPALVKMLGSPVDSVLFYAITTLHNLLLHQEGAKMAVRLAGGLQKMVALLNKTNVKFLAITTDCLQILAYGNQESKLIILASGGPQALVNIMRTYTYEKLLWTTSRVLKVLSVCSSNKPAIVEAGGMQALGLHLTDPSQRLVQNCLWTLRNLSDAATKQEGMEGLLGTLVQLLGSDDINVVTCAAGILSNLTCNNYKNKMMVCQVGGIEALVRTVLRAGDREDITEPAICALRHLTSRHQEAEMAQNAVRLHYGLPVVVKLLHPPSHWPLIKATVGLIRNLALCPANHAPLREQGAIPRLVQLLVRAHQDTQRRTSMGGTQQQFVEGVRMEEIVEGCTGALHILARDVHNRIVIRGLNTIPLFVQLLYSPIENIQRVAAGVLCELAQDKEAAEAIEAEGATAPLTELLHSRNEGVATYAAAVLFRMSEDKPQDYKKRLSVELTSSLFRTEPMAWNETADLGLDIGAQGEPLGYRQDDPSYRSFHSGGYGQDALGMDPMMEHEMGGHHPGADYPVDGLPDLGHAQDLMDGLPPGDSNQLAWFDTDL
The experiment in a line: Fluorescence polarization IC50 (beta-catenin / 5FAM-TCF4 10-53 competition). The assay is classed as binding. The following applies: fluorescence polarization; read-out: beta-Catenin FP IC50.

The target of assay [2] is T2, beta-catenin/TCF4 engagement (Homo sapiens, UniProt P35222).
T2 construct: expressed in transfected cells; host or cells: HEK293
T2 sequence (P35222 1-781): T1 sequence (P35222 1-781)
The experiment in a line: Nano-BRET target engagement assay (B-cat-Halo & TCF4-Luc in HEK293 cells). The following applies: absolute IC50; read-out: NanoBRET Abs IC50. The assay is classed as cell-based.

On to `CC(=O)N1CCC[C@]12CC=CCCCC1(CCCC=CCCCOC(=O)N3CC[C@@](C(=O)N[C@@H](Cc4ccsc4)C(=O)N[C@@H](Cc4csc5ccccc45)C(=O)N[C@@H](CCC(N)=O)C(N)=O)(C3)NC(=O)[C@H](CCO)NC(=O)[C@H](Cc3ccccc3)NC(=O)[C@H](C)NC(=O)[C@H](C)NC(=O)[C@H](Cc3c[nH]cn3)NC(=O)[C@H](CC(=O)O)NC1=O)NC(=O)[C@H](CC(C)(C)C)NC(=O)[C@H](CC(=O)O)NC2=O` (stereo partly drawn) [I-1793, Ac-PL3-Asp-Npg-B5-Asp-His-Ala-Ala-Phe-Hse-PyrS2-3Thi-BztA-Gln-NH2], for which the IC50 in assay [1] was 20 nM; in assay [2], above 20000 nM.
On the same counts, the results for `CC(=O)N1CCC[C@]12CC=CCCCC1(CCCC=CCCCOC(=O)N3CC[C@@](C(=O)N[C@@H](Cc4ccsc4)C(=O)N[C@@H](Cc4csc5ccccc45)C(=O)N[C@@H](CCC(N)=O)C(N)=O)(C3)NC(=O)[C@H](CCO)NC(=O)[C@H](Cc3ccccc3)NC(=O)[C@H](C)NC(=O)[C@H](C)NC(=O)[C@H](Cc3c[nH]cn3)NC(=O)[C@H](CC(=O)O)NC1=O)NC(=O)[C@H](CC(C)(C)C)NC(=O)[C@H](CC(=O)O)NC2=O` (stereo partly drawn) [I-1794, Ac-PL3-Asp-Npg-B5-Asp-His-Ala-Ala-Phe-Hse-PyrS2-3Thi-BztA-Gln-NH2] are 52 nM and 37700 nM.
The like results for `CC(=O)N1CCC[C@]12CC=CCCCC1(CCCC=CCCCOC(=O)N3CC[C@@](C(=O)N[C@@H](Cc4ccsc4)C(=O)N[C@@H](Cc4csc5ccccc45)C(=O)N[C@@H](CCC(N)=O)C(N)=O)(C3)NC(=O)[C@H](CC(C)C)NC(=O)[C@H](Cc3ccccc3)NC(=O)[C@H](C)NC(=O)[C@H](C)NC(=O)[C@H](Cc3c[nH]cn3)NC(=O)[C@H](CC(=O)O)NC1=O)NC(=O)[C@H](CC(C)(C)C)NC(=O)[C@H](CC(=O)O)NC2=O` (stereo partly drawn) [I-1796, Ac-PL3-Asp-Npg-B5-Asp-His-Ala-Ala-Phe-Leu-PyrS2-3Thi-BztA-Gln-NH2] were, in that order, 22 nM and above 20000 nM.
The like results for `CC(=O)N1CCC[C@]12CC=CCCCC1(CCCC=CCCCOC(=O)N3CC[C@@](C(=O)N[C@@H](Cc4ccsc4)C(=O)N[C@@H](Cc4csc5ccccc45)C(=O)N[C@@H](CCC(=O)N4CCC(N5CCCCC5)CC4)C(N)=O)(C3)NC(=O)[C@H](CC(C)C)NC(=O)[C@H](Cc3ccccc3)NC(=O)[C@H](C)NC(=O)[C@H](C)NC(=O)[C@H](CN(CC(=O)O)CC(F)(F)F)NC(=O)[C@H](CC(=O)O)NC1=O)NC(=O)[C@H](CC(C)(C)C)NC(=O)[C@H](CC(=O)O)NC2=O` (stereo partly drawn) [I-1797, Ac-PL3-Asp-Npg-B5-Asp-TfeGA-Ala-Ala-Phe-Leu-PyrS2-3Thi-BztA-[4Pippip]GlnR-NH2] were, in that order, 10 nM and 22500 nM.
As to `CC(=O)N1CCC[C@]12CC=CCCCC1(CCCC=CCCCOC(=O)N3CC[C@@](C(=O)N[C@@H](Cc4ccsc4)C(=O)N[C@@H](Cc4csc5ccccc45)C(=O)N[C@@H](CCC(=O)N4CCN(CCCN(C)C)CC4)C(N)=O)(C3)NC(=O)[C@H](CC(C)C)NC(=O)[C@H](Cc3ccccc3)NC(=O)[C@H](C)NC(=O)[C@H](C)NC(=O)[C@H](CN(CC(=O)O)CC(F)(F)F)NC(=O)[C@H](CC(=O)O)NC1=O)NC(=O)[C@H](CC(C)(C)C)NC(=O)[C@H](CC(=O)O)NC2=O` (stereo partly drawn) [I-1799, Ac-PL3-Asp-Npg-B5-Asp-TfeGA-Ala-Ala-Phe-Leu-PyrS2-3Thi-BztA-[Me2NPrPip]GlnR-NH2], the half-inhibitory concentration (IC50) came to 8 nM in assay [1] and 25800 nM in assay [2].
Take `CC(=O)N1CCC[C@]12CC=CCCCC1(CCCC=CCCCOC(=O)N3CC[C@@](C(=O)N[C@@H](Cc4ccsc4)C(=O)N[C@@H](Cc4csc5ccccc45)C(=O)N[C@@H](CCC(=O)N4CCN(CCCN(C)C)CC4)C(N)=O)(C3)NC(=O)[C@H](CC(C)C)NC(=O)[C@H](Cc3ccccc3)NC(=O)[C@H](C)NC(=O)[C@H](C)NC(=O)[C@H](CN(CC(=O)O)CC(F)(F)F)NC(=O)[C@H](CC(=O)O)NC1=O)NC(=O)[C@H](CC(C)(C)C)NC(=O)[C@H](CC(=O)O)NC2=O` (stereo partly drawn) [I-1800, Ac-PL3-Asp-Npg-B5-Asp-TfeGA-Ala-Ala-Phe-Leu-PyrS2-3Thi-BztA-[Me2NPrPip]GlnR-NH2]: the figures for the IC50 in assay [1] and in assay [2] were 13 nM and 25200 nM, respectively.
On the same counts, the results for `CC(=O)N1CCC[C@]12CC=CCCCC1(CCCC=CCCCOC(=O)N3CC[C@@](C(=O)N[C@@H](Cc4ccsc4)C(=O)N[C@@H](Cc4csc5ccccc45)C(=O)N[C@@H](CCC(=O)N4CCC(N5CCN(C)CC5)CC4)C(N)=O)(C3)NC(=O)[C@H](CC(C)C)NC(=O)[C@H](Cc3ccccc3)NC(=O)[C@H](C)NC(=O)[C@H](C)NC(=O)[C@H](CN(CC(=O)O)CC(F)(F)F)NC(=O)[C@H](CC(=O)O)NC1=O)NC(=O)[C@H](CC(C)(C)C)NC(=O)[C@H](CC(=O)O)NC2=O` (stereo partly drawn) [I-1801, Ac-PL3-Asp-Npg-B5-Asp-TfeGA-Ala-Ala-Phe-Leu-PyrS2-3Thi-BztA-[4MePpzPip]GlnR-NH2] are 7 nM and 17500 nM.
For `CC(=O)N1CCC[C@]12CC=CCCCC1(CCCC=CCCCOC(=O)N3CC[C@@](C(=O)N[C@@H](Cc4ccsc4)C(=O)N[C@@H](Cc4csc5ccccc45)C(=O)N[C@@H](CCC(=O)N4CCC(N5CCN(C)CC5)CC4)C(N)=O)(C3)NC(=O)[C@H](CC(C)C)NC(=O)[C@H](Cc3ccccc3)NC(=O)[C@H](C)NC(=O)[C@H](C)NC(=O)[C@H](CN(CC(=O)O)CC(F)(F)F)NC(=O)[C@H](CC(=O)O)NC1=O)NC(=O)[C@H](CC(C)(C)C)NC(=O)[C@H](CC(=O)O)NC2=O` (stereo partly drawn) [I-1802, Ac-PL3-Asp-Npg-B5-Asp-TfeGA-Ala-Ala-Phe-Leu-PyrS2-3Thi-BztA-[4MePpzPip]GlnR-NH2], the figures for the 50% inhibitory concentration (IC50) in assay [1] and in assay [2] were 11 nM and 25200 nM, respectively.
The like results for `CC(=O)N1CCC[C@]12CC=CCCCC1(CCCC=CCCCOC(=O)N3CC[C@@](C(=O)N[C@@H](Cc4ccsc4)C(=O)N[C@@H](Cc4csc5ccccc45)C(=O)N[C@@H](CCC(=O)N4CCN(CC(F)(F)F)CC4)C(N)=O)(C3)NC(=O)[C@H](CC(C)C)NC(=O)[C@H](Cc3ccccc3)NC(=O)[C@H](C)NC(=O)[C@H](C)NC(=O)[C@H](CN(CC(=O)O)CC(F)(F)F)NC(=O)[C@H](CC(=O)O)NC1=O)NC(=O)[C@H](CC(C)(C)C)NC(=O)[C@H](CC(=O)O)NC2=O` (stereo partly drawn) [I-1803, Ac-PL3-Asp-Npg-B5-Asp-TfeGA-Ala-Ala-Phe-Leu-PyrS2-3Thi-BztA-[TfePpz]GlnR-NH2] were, in that order, 20 nM and 7400 nM.
On the same counts, the results for `CC(=O)N1CCC[C@]12CC=CCCCC1(CCCC=CCCCOC(=O)N3CC[C@@](C(=O)N[C@@H](Cc4ccsc4)C(=O)N[C@@H](Cc4csc5ccccc45)C(=O)N[C@@H](CCC(=O)N4CC[C@@H](N(C)C)C4)C(N)=O)(C3)NC(=O)[C@H](CC(C)C)NC(=O)[C@H](Cc3ccccc3)NC(=O)[C@H](C)NC(=O)[C@H](C)NC(=O)[C@H](CN(CC(=O)O)CC(F)(F)F)NC(=O)[C@H](CC(=O)O)NC1=O)NC(=O)[C@H](CC(C)(C)C)NC(=O)[C@H](CC(=O)O)NC2=O` (stereo partly drawn) [I-1804, Ac-PL3-Asp-Npg-B5-Asp-TfeGA-Ala-Ala-Phe-Leu-PyrS2-3Thi-BztA-[RDMAPyr]GlnR-NH2] are 8 nM and 9400 nM.
